# From patent US7566528B2, “Method for the identification and/or validation of receptor tyrosine kinase inhibitors” (Esbatech AG, priority 2003, dated 2009)
# “Also recorded” adds a separate entry of the source. Where a name gives a salt, the structure may show the parent alone.
# Experiments:
# [1] = tested on: human receptor tyrosine kinase RET; assay: Yeast growth restoration assay, cells expressing RET (OD 600 nm); assay type: cell-based; conditions: 50 μM in the yeast culture; OD 600 nm light scattering; FIG. 3
# Text: (§1) Selection of specific inhibition of Receptor Tyrosine Kinase activity in yeast.
# [2] = target: T1, human receptor tyrosine kinase PDGFR-β (Homo sapiens, UniProt P09619); assay: Yeast growth restoration assay, cells expressing PDGFR-β (OD 600 nm); assay type: cell-based; conditions: 50 μM in the yeast culture; OD 600 nm light scattering; FIG. 3
# T1 construct: N-terminus of the cytoplasmic domains of c-Met (AA932-1366) and PDGFRβ (AA524-1067); myristoylation signal (membrane anchoring) (N); expressed in transfected cells; host or cells: yeast (S. cerevisiae preferred)
# Text: as §1
# T1 sequence (P09619 556-1099): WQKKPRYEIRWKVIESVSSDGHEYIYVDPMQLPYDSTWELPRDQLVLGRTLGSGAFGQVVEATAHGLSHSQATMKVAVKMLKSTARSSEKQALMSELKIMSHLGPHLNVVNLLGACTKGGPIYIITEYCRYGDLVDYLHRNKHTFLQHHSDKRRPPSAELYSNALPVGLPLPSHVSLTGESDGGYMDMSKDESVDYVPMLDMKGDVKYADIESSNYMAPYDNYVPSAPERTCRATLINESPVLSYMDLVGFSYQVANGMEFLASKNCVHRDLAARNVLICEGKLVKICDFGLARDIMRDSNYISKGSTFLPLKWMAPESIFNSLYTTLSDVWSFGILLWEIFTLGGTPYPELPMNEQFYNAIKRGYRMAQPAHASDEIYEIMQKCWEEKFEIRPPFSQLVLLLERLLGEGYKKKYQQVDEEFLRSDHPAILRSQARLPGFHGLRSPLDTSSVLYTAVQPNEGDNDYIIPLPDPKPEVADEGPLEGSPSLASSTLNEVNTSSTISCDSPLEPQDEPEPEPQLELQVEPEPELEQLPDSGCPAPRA
smiles,measurement,setting,value
Cc1ccc(NC(=O)c2ccc(CN3CCN(C)CC3)cc2)cc1Nc1nccc(-c2cccnc2)n1 [imatinib mesylate],restoration of growth of RET-expressing yeast cells,[1],not growth of cells expressing RET
same,restoration of growth of PDGFR-β-expressing yeast cells,[2],restore growth under selective conditions; also recorded: specifically restores growth
